Source: US10512266B2, “Herbicidal compositions based on 3-phenyluracils and N-[[4-[cyclopropylamino)-carbonyl]phenyl]sulfonyl]-2-methoxybenzamide” (BASF SE, priority 2005, dated 2019)

What was measured:
Conditions in all cases: safener II alone, 150 g/ha
HORVW = test: Greenhouse post-emergence test, damage to crop plant HORVW; type: in vivo, winter barley
From the text: (§1) For the post-emergence treatment, the test plants were first grown to a height of 3 to 20 cm, depending on the plant habit, and only then treated. Here, the herbicidal compositions were suspended or emulsified in water as distribution medium and sprayed using finely distributing nozzles. The respective component I was formulated as a 12% by weight strength emulsion concentrate, and component II as a 10% by weight suspension concentrate. Optionally components III can be used in their appropriate available formulation types. The components I, II and optionally III were introduced to the spray liquid with the amount of solvent system used for applying the active compound. The test period extended over 21 days. During this time, the plants were tended, and their response to the treatments with active compound was evaluated. The evaluation for the damage caused by the chemical compositions was carried out using a scale from 0 to 100%, compared to the untreated control plants. Here, 0 means no damage and 100 means complete destruction of the plants. […]

ZEAMX = test: Greenhouse post-emergence test, damage to crop plant ZEAMX; type: in vivo, corn
From the text: as §1

CHEAL = test: Greenhouse post-emergence test, herbicidal action against CHEAL; type: in vivo, lambsquaters
From the text: (§2) For the post-emergence treatment, the test plants were first grown to a height of 3 to 20 cm, depending on the plant habit, and only then treated. Here, the herbicidal compositions were suspended or emulsified in water as distribution medium and sprayed using finely distributing nozzles. The respective component I was formulated as a 12% by weight strength emulsion concentrate, and component II as a 10% by weight suspension concentrate. Optionally components III can be used in their appropriate available formulation types. The components I, II and optionally III were introduced to the spray liquid with the amount of solvent system used for applying the active compound. The test period extended over 21 days. During this time, the plants were tended, and their response to the treatments with active compound was evaluated. The evaluation for the damage caused by the chemical compositions was carried out using a scale from 0 to 100%, compared to the untreated control plants. Here, 0 means no damage and 100 means complete destruction of the plants. [table]

TRZAS = test: Greenhouse post-emergence test, damage to crop plant TRZAS; type: in vivo, spring wheat
From the text: as §1

POLCO = test: Greenhouse post-emergence test, herbicidal action against POLCO; type: in vivo, wild buckwheat
From the text: as §2

AMARE = test: Greenhouse post-emergence test, herbicidal action against AMARE; type: in vivo, common amaranth
From the text: as §2

ABUTH = test: Greenhouse post-emergence test, herbicidal action against ABUTH; type: in vivo, velvetleaf
From the text: as §2

## COc1ccccc1C(=O)NS(=O)(=O)c1ccc(C(=O)NC2CC2)cc1 [II, N-[[4-[(cyclopropylamino)carbonyl]phenyl]sulfonyl]-2-methoxybenzamide]
HORVW
  damaging effect on HORVW: has not shown damaging effect
ZEAMX
  damaging effect on ZEAMX: has not shown damaging effect
CHEAL
  herbicidal activity on CHEAL: has not shown herbicidal activity
TRZAS
  damaging effect on TRZAS: has not shown damaging effect
POLCO
  herbicidal activity on POLCO: has not shown herbicidal activity
AMARE
  herbicidal activity on AMARE: has not shown herbicidal activity
ABUTH
  herbicidal activity on ABUTH: has not shown herbicidal activity
